Experimental data as given in ChEMBL document CHEMBL1135608, “Discovery of the first nonpeptide agonist of the GPR14/urotensin-II receptor: 3-(4-chlorophenyl)-3-(2- (dimethylamino)ethyl)isochroman-1-one (AC-7954)” (J Med Chem, 2002).

Columns and labels:
Urotensin-2 receptor [1] = target: T1, Urotensin-2 receptor (Homo sapiens, UniProt Q9UKP6); assay: Potency against human Urotensin 2 receptor
T1 sequence (Q9UKP6 whole entry): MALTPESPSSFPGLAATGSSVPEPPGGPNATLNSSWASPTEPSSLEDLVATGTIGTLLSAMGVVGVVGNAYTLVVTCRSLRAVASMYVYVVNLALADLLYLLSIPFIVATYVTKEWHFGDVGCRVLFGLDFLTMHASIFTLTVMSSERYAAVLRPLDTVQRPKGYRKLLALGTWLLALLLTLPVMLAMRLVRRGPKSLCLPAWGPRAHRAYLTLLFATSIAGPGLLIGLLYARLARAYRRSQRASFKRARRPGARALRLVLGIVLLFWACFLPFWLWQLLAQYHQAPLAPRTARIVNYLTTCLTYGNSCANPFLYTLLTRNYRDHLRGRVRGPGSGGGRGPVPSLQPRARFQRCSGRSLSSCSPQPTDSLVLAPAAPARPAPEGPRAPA

[2] = Lipophilicity of the compound; format: physicochemical; conditions: octanol/water
[3] = Dissociation constant of the compound; format: physicochemical
Urotensin-2 receptor [4] = target: T2, Urotensin-2 receptor (Rattus norvegicus, UniProt P49684); assay: Potency against rat Urotensin 2 receptor
T2 sequence (P49684 whole entry): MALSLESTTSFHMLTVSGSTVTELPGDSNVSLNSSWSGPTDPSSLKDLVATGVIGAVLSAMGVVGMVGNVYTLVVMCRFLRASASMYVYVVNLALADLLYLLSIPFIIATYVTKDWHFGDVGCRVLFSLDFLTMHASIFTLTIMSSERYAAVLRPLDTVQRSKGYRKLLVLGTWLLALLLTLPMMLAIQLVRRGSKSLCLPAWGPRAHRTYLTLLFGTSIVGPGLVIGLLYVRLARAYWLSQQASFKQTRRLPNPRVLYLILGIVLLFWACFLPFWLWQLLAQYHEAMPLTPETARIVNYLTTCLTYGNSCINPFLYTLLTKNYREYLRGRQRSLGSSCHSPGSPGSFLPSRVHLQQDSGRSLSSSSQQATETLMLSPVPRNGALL

Row | EC50 (Urotensin-2 receptor [1]) [nM] | logD [2] | pKa [3] | EC50 (Urotensin-2 receptor [4]) [nM] | SMILES
1 | 251 |  |  |  | CN(C)CCC1(c2ccc(Cl)cc2)Cc2ccccc2C(=O)O1 (single isomer, unassigned; (+))
2 | 316 | 2.1 | 8.7 | 200 | CN(C)CCC1(c2ccc(Cl)cc2)Cc2ccccc2C(=O)O1 (stereo in doubt; 1)
